In the assay the test system is HBV replication in HepG2-2.2.15 cells. The assay is described as follows: Inhibition of HBV replication dot-blot assay. It counts as cell-based. Particulars: Hepatitis B virus, 144 h, 6 days, reduction in HBV DNA levels. How it is done:
Compounds active in the HBV assembly assay are tested for their activity and toxicity in cellular assay. In the first anti-viral assay, the ability of compounds to inhibit HBV replication in an HBV-producing hepatoma cell line using the dot-blot method is evaluated.
(§1) Briefly, confluent monolayers of HepG2-2.2.15 cells are incubated with complete medium containing various concentrations of a test compound. Three days later, the culture medium is replaced with fresh medium containing the appropriately diluted test compound. Six days following the initial administration of the test compound, the cell culture supernatant is collected, and cell lysis is performed. The samples are applied onto Nylos membranes and DNA is immobilized to the membrane by UV cross-linking. After pre-hybridization, the HBV probe is added and the hybridization is performed overnight. The membranes are exposed to the KODAK films; antiviral activity is calculated from the reduction in HBV DNA levels (EC50). The EC50 for antiviral activity is calculated from the dose response curves of active compounds. Assay performance over time is monitored by the use of the standard positive control compounds ETV, BAY 41-4109, and HAP-1.
Selected compounds are tested for their activity and toxicity in cellular assay. In the first anti-viral assay, the ability of compounds to inhibit HBV replication in an HBV-producing hepatoma cell line using the dot-blot method is evaluated.
as §1, with “Confluent monolayers” for “Briefly, confluent monolayers”, “lysis was” for “lysis is”
A word on the EC50: it is the midpoint of the concentration-response curve. A lower EC50 goes with greater potency. The compound `O=C(Nc1cc(F)c(F)c(F)c1)c1ccc(F)c(S[C@H]2CCCC[C@@H](O)C2)c1` (racemic) [Example 14A, (±)-4-Fluoro-3-(((1S,3R)-3-hydroxycycloheptyl)thio)-N-(3,4,5-trifluorophenyl)benzamide] gave a concentration for a half-maximal effect (EC50) of under 10 µM. Regarding `O=C(Nc1cc(F)c(F)c(F)c1)c1ccc(F)c(S[C@H]2CCCC[C@H](O)C2)c1` (racemic) [Example 14B, (±)-4-Fluoro-3-(((1R,3R)-3-hydroxycycloheptyl)thio)-N-(3,4,5-trifluorophenyl)benzamide], the half-maximal effective concentration (EC50) is under 10 µM. `O=C(Nc1ccc(F)c(Cl)c1)c1ccc(F)c(SC2CCC[C@H](O)C2)c1` (mixture of isomers) [Example 21, (±)-N-(3-Chloro-4-fluorophenyl)-4-fluoro-3-(((1R,3R)-3-hydroxycyclohexyl)thio)benzamide]: the half-maximal effective concentration (EC50) is under 10 µM. As for `O=C(Nc1ccc(F)c(Cl)c1)c1ccc(F)c(S[C@H]2CC[C@H](O)C2)c1` (racemic) [Example 25, (±)-N-(3-Chloro-4-fluorophenyl)-4-fluoro-3-(((1S,3S)-3-hydroxycyclopentyl)thio)benzamide], the EC50 was under 10 µM.

The values are drawn from US9597332B2, “Sulfide alkyl compounds for HBV treatment” (NOVIRA THERAPEUTICS, INC., priority 2014, dated 2017).
